# According to patent US6433220B1 (RPC Inc., priority 1998, dated 2002):
# Where two headings read alike, the source gives them in different places.
# Key:
# [1] = cited from earlier work; for EN (normalized solvent polarity parameter): water and tetramethylsilane as extreme reference solvents; for ET (solvent polarity parameter): solvatochromic absorption of betaine dye
# [2] = cited from earlier work
# [3] = Solubility of cobalt ion in the combination solvent; assay type: physicochemical; conditions: cyclohexanone/water combination solvent
# Description: The above profound and unexpected attributes (considerable increase of dibasic acid solubility combined with considerable decrease of cobalt ion solubility in the novel combination solvent) are primarily responsible for a clean extraction of the cobalt ion with water from the rest of the reaction mixture, which remains dissolved in the combination solvent of the instant invention.
molecule,measurement,setting,value
CC(=O)O [Acetic acid],EN (normalized solvent polarity parameter),[1],0.648
C1CCCCC1 [Cyclohexane],EN (normalized solvent polarity parameter),[1],0.006
OC1CCCCC1 [Cyclohexanol],EN (normalized solvent polarity parameter),[1],0.500
O=C1CCCCC1 [Cyclohexanone],mol % CHxO (solubility of cyclohexanone in water),[2]; 20 °C,1.98% mol %
same,wt % CHxO (solubility of cyclohexanone in water),[2]; 20 °C,10.00% wt %
same,mol % CHxO (solubility of cyclohexanone in water),[2]; 25 °C,1.85% mol %
same,wt % CHxO (solubility of cyclohexanone in water),[2]; 25 °C,9.39% wt %
same,mol % CHxO (solubility of cyclohexanone in water),[2]; 30 °C,1.73% mol %
same,wt % CHxO (solubility of cyclohexanone in water),[2]; 30 °C,8.83% wt %
same,mol % CHxO (solubility of cyclohexanone in water),[2]; 50 °C,1.43% mol %
same,wt % CHxO (solubility of cyclohexanone in water),[2]; 50 °C,7.39% wt %
same,mol % CHxO (solubility of cyclohexanone in water),[2]; 70 °C,1.34% mol %
same,wt % CHxO (solubility of cyclohexanone in water),[2]; 70 °C,6.95% wt %
same,mol % CHxO (solubility of cyclohexanone in water),[2]; 90 °C,1.44% mol %
same,wt % CHxO (solubility of cyclohexanone in water),[2]; 90 °C,7.44% wt %
same,EN (normalized solvent polarity parameter),[1],0.281
CCO [Ethanol],EN (normalized solvent polarity parameter),[1],0.654
CO [Methanol],EN (normalized solvent polarity parameter),[1],0.762
O [Water],ET (solvent polarity parameter),[1],63.1 kcal/mol
same,EN (normalized solvent polarity parameter),[1],1.000
c1ccc(Oc2ccccc2)cc1 [diphenyl ether],ET (solvent polarity parameter),[1],35.3 kcal/mol
CCCCCC [n-Hexane],EN (normalized solvent polarity parameter),[1],0.009
cobalt ion,solubility of the cobalt ion in the novel combination solvent,[3],decreases considerably
